Measurements from publication PMC7048748, “Anxiolytic Drug FGIN-1-27 Ameliorates Autoimmunity by Metabolic Reprogramming of Pathogenic Th17 Cells” (Scientific Reports, 2020).

What was measured:
Type in all cases: cell-based, mouse
[1] = system: Th17 cells from TSPO KO mice; assay: Th17 differentiation with CD4 T cells from TSPO knockout mice; settings: compared with T cells expressing TSPO
Source text: We explored the mechanism of action for FGIN-1-27 and whether the effect of FGIN-1-27 on Th17 differentiation was driven by TSPO, the reported target of this compound. We used two approaches: first, we investigated the correlation between FGIN-1-27 induced IL-17 down-regulation and binding to TSPO. For the binding studies, we used a biochemical radio ligand displacement assay with the well-characterized TSPO ligand PK-11195 as a tracer. […] Secondly, we purified CD4^+ T cells from spleen and lymph nodes of mice that lacked global expression of TSPO (TSPO KO mice)[19]. We added FGIN-1-27 to the cultures of CD4^+ T cells from controls or TSPO KO mice that were induced towards the Th17 differentiation program.
Figure 3 Effect of FGIN-1-27 on Th17 Differentiation is Independent of TSPO. (a) Plot showing correlation between binding of FGIN-1-27 to TSPO and effect on IL-17 production. Binding of FGIN-1-27 to TSPO was measured using a biochemical radiolabeled displacement assay and radiolabeled PK-11195 was used as a control ligand. (b) Immunoblot to detect TSPO from spleens of either control or TSPO knockout mice (upper panel) and dose response plot for FGIN-1-27 showing effect on Th17 differentiation using purified CD4 T cells from spleens of either control or TSPO knockout mice. IL-17 production was normalized using DMSO treatment from control cells as 100%. […]

[2] = system: reactive oxygen species (ROS); assay: Intracellular ROS with DCFDA; settings: 24-hour post treatment, 5 and 10 µM
Protocol: Figure 5 FGIN-1-27 induces amino acid starvation response (AAR). (a) MA-plot showing shrunken log2 fold-changes of detected genes between the DMSO and FGIN-1-27 RNA-seq samples, ranked by average normalized count. […] (b) Transcript levels for the indicated genes after 24 hours of treatment with DMSO or FGIN-1-27 quantified by qPCR. The error bars represent SD. (c) Western blot analysis for phosphorylated eIF2α and ATF4 24 hours after treatment with DMSO or FGIN-1-27 (5 and 10 μM). Data are representative of 3 independent experiments. (d) Amino acids in Th17 cells measured 72 hours after treatment with FGIN-1-27. The error bars represent SD. (e) ROS was measured using cell permeant reagent 2',7' -dichlorofluorescin diacetate (DCFDA) at 24 hours following treatment with FGIN-1-27. Filled grey histogram-DMSO, dotted line-FGIN-1-27 (10 μM) and dashed line indicates FGIN-1-27 (5 μM). (f) Dose response plot showing effect of FGIN-1-27 on intracellular IL-17 after pre-treatment with NAC (1 μM). Data are normalized using DMSO treated cells as 100% and the error bars represent SD. Increased amino acid synthesis and transport is characteristic of the amino acid starvation response (AAR)[20]. […] Induction of ATF4 can be an indication of oxidative stress and we measured reactive oxygen species (ROS) using the cell permeant reagent 2',7' -dichlorofluorescin diacetate (DCFDA).

[3] = system: S6 ribosomal protein (Ser 235/236) and mTOR (Ser 2448); assay: Phospho S6 and phospho mTOR staining; settings: 10, 5 and 2.5 µM
Protocol: For phospho-S6 analyses, cells were cultured for 3 hours in Th17 polarization media on anti-CD3/CD28 coated plates. Cells were then fixed after fixation and permeabilization with a Transcription Factor Staining kit (eBioscience) and stained with anti-phospho-S6 antibody (S235/236, Cell Signaling) and anti-CD4. Dead cells were excluded using Live/Dead stain prior to fixation. For mTOR analyses, anti-phospho-mTOR antibody was used (Ser2448, eBioscience). page 6: […] blot analysis for phosphorylated eIF2α and ATF4 24 hours after treatment with DMSO or FGIN-1-27 (5 and 10 μM). (b) Intracellular phospho S6 ([…]/236) Th17 cells treated with DMSO or FGIN-1-27 […] The black line represents DMSO and the grey filled histogram represent FGIN-1-27 (10μM). The dotted lines (5μ M) and the dashed line represents staining after 2.5μM of FGIN-1-27 treatment. (c) Intracellular phospho mTOR ([…]) Th17 cells treated with DMSO or FGIN-1-27 […] The black line represents DMSO and the grey filled histogram represent FGIN-1-27 (10μM). The dotted lines (5μ M) and the dashed line represents staining after 2.5μM of FGIN-1-27 treatment.

Structure (SMILES): CCCCCCN(CCCCCC)C(=O)Cc1c(-c2ccc(F)cc2)[nH]c2ccccc12 [FGIN-1-27, N, N-di-n-hexyl 2-(4-fluorophenyl) indole-3-acetamide]
- Th17 differentiation in T cells from TSPO KO mice [1]: similarly to T cells expressing TSPO
- intracellular ROS levels [2]: dose dependent increase
- phosphorylation of S6 ribosomal protein (Ser 235/236) and mTOR (Ser 2448) [3]: dose-dependent decrease
